Where “and” joins values, the source holds several entries; their conditions need not be identical. Equal entries are not always repeated.
Test: isobaric coefficient of expansion
Conditions: Gas, Pressure calorimetry

N#N [nitrogen]
Conditions	isobaric coefficient of expansion
302.9 K, 15 kPa	0.004 1/K
302.9 K, 30 kPa	0.0036 1/K
302.9 K, 39.9 kPa	0.00322 1/K
302.9 K, 60 kPa	0.00262 1/K
302.9 K, 70 kPa	0.00243 1/K
302.9 K, 80 kPa	0.00224 1/K
302.9 K, 89.9 kPa	0.00209 1/K
322.9 K, 13 kPa	0.0036 1/K
322.9 K, 14 kPa	0.0036 1/K
322.9 K, 15 kPa	0.0036 1/K
322.9 K, 16 kPa	0.0036 1/K
322.9 K, 18 kPa	0.0036 1/K
322.9 K, 20 kPa	0.0036 1/K
322.9 K, 30 kPa	0.00333 1/K
322.9 K, 40 kPa	0.00303 1/K
322.9 K, 60 kPa	0.0025 1/K and 0.00251 1/K
322.9 K, 80 kPa	0.00212 1/K
352.6 K, 14 kPa	0.00309 1/K
352.6 K, 30 kPa	0.00297 1/K and 0.00299 1/K
352.6 K, 40 kPa	0.0026 1/K
352.6 K, 50 kPa	0.00252 1/K
352.6 K, 60 kPa	0.00232 1/K
352.6 K, 70 kPa	0.00217 1/K
352.6 K, 80 kPa	0.002 1/K
352.6 K, 90 kPa	0.00186 1/K
422.2 K, 18 kPa	0.00244 1/K
422.2 K, 22 kPa	0.00249 1/K
422.2 K, 24 kPa	0.00248 1/K
422.2 K, 26 kPa	0.00238 1/K
422.2 K, 28 kPa	0.00236 1/K
422.2 K, 30 kPa	0.00236 1/K
422.2 K, 40 kPa	0.00225 1/K
422.2 K, 50 kPa	0.00206 1/K
422.2 K, 60 kPa	0.00194 1/K
422.2 K, 70 kPa	0.00184 1/K
422.2 K, 80 kPa	0.00177 1/K
422.2 K, 90 kPa	0.00165 1/K
